Measured values from PubChem BioAssay AID2060903 (Molecular Pharmacology Branch, DTP, NCI, 2025).

System: 377384-186-R-J1-PDC complex spheroid viability
Experiment: Anticancer human tumor 377384-186-R-J1-PDC patient-derived pancreatic carcinoma cell line growth inhibition [RAS]
Conditions: for IC50: curve of first compound; for viability, T/C: stronger effect = lower value; active = viability on the fitted dose curve at most 10% of control; inactive = the rest
Excerpt: RAS pathway inhibitors in Combinations in Complex Spheroids
A high-throughput screen of multi-cell type tumor spheroids was designed to identify active combinations of RAS pathway inhibitors and targeted small molecules. Complex spheroids include a stromal component modeled by human endothelial cells (HUVEC) and fibroblasts modeled by human mesenchymal stem cells (MSCs). The concentration ranges selected for each drug and investigational agent were based upon clinically achievable concentrations if the clinical Cmax of the agent was known.
Compounds. The drugs and investigational agents: abemaciclib (NSC768073), cobimetinib (NSC768068), divarasib (GDC6063, NSC841802), docetaxel (NSC628503), GDC-1971 (RLY-1971, NSC841576), gemcitabine (NSC613327), inavolisib (NSC800729), ipatasertib (NSC767898), KB-0742 (NSC834161), MRTX-1133 (NSC836407), osimertinib (NSC779217), RMC-4630 (NSC839698), RMC-6236 (NSC851965), RMC-6291 (NSC852671), Ro-3306 (NSC812927), sapanisertib (NSC764658), SN-38 (NSC673596), staurosporine (NSC755774), SY5609 (NSC837396), and tovorafenib (DAY101, NSC766906), were obtained from the National Cancer Institute (NCI) Developmental Therapeutics Program Chemical Repository. The FDA-approved anticancer drug set is available from the NCI Developmental Therapeutics Program. […] The stock solutions were prepared in dimethyl sulfoxide (DMSO, Sigma-Aldrich, St. Louis, MO, cat. D2650) at 800-fold the tested concentration and stored at -70 degrees C prior to their use. All drugs and investigational agents were tested over a range starting from a high concentration at or near the clinical Cmax and decreasing in half-log increments. If the clinical Cmax for an agent had not been determined, the highest concentration tested was 10 microM.
Cell Culture. All cells were maintained in an incubator at 37 degrees C and 5% CO2 with 95% humidity. The PDC lines were cultured according to standard operating procedures established by the NCI PDMR. All PDCs were thawed and cultured in Matrigel-coated flasks prepared with a working solution of 1X Ham's F-12 nutrient mix, without supplementation (Invitrogen, Waltham, MA, cat. 11765054), 100 U/mL penicillin-streptomycin (Invitrogen, cat. 15140122), and 2.5% Matrigel (Corning Inc., Corning, NY, cat. 354248) for the first three passages. The 362531-283-R-J2-PDC and 782815-120-R-J1-PDC lines were cultured in 6C/Colon 1B media, which includes advanced DMEM/F-12 (Thermo Fisher Scientific, cat. 12634028), 10 mM HEPES (Thermo Fisher Scientific, cat. 15630080), 1X GlutaMAX supplement (Thermo Fisher Scientific, cat. 35050061), 0.1 mg/mL primocin (InvivoGen, San Diego, CA, cat. ant-pm-2), 10% defined fetal bovine serum, heat inactivated (HyClone Laboratories Inc., Logan, UT, cat. SH30070.03HI), 50% L-WRN conditioned media (ATCC, cat. CRL-3276), 1.25 mM N-Acetyl-L-cysteine (Sigma-Aldrich, cat. A9165), 10 mM nicotinamide (Sigma-Aldrich, cat. N0636), 1X B-27 supplement (Thermo Fisher Scientific, cat. 17504044), 1X N-2 supplement (Thermo Fisher Scientific, cat. 17502048), 50 ng/mL human EGF (Thermo Fisher Scientific, cat. PHG0311), and 10 microM Y-27632 dihydrochloride (Tocris Bioscience, cat. 1254). The K12877-001-R-J1-PDC line was cultured in 6I media, which includes all 6C/Colon 1B media plus 10 ng/mL human FGF-10 (PeproTech, cat. 100-26), 1 ng/mL human FGF-2 (PeproTech, cat. 100-18B), 1 µM prostaglandin E2 (Tocris Bioscience, cat. 2296), […] hydrocortisone (Sigma-Aldrich, cat. H4001), and […] bovine insulin (Sigma-Aldrich, cat. I6634). The K86415-001-R-J1-PDC line was cultured in 6D media, which includes all 6C/Colon 1B media components minus the L-WRN conditioned media. The 485176-168-R4-J1-PDC was cultured in PANC media, which includes all 6C/Colon 1B media plus 100 ng/mL human FGF-10 (PeproTech, cat. 100-26), 500 nM SB-431542 (Selleckchem, cat. S1067), and 10 nM gastrin (Tocris Bioscience, cat. 3006). […]

[1] = second compound 0.0316 µM, first compound 0.0316 µM
[2] = second compound 0.0316 µM, first compound 0.1 µM
[3] = second compound 0.0316 µM, first compound 0.316 µM
[4] = second compound 0.0316 µM, first compound 1 µM
[5] = second compound 0.1 µM, first compound 0.0316 µM
[6] = second compound 0.1 µM, first compound 0.1 µM
[7] = second compound 0.1 µM, first compound 0.316 µM
[8] = second compound 0.1 µM, first compound 1 µM
[9] = second compound 0.316 µM, first compound 0.0316 µM
[10] = second compound 0.316 µM, first compound 0.1 µM
[11] = second compound 0.316 µM, first compound 0.316 µM
[12] = second compound 0.316 µM, first compound 1 µM
[13] = second compound 1 µM, first compound 0.0316 µM
[14] = second compound 1 µM, first compound 0.1 µM
[15] = second compound 1 µM, first compound 0.316 µM
[16] = second compound 1 µM, first compound 1 µM
[17] = second compound 3.16 µM, first compound 0.0316 µM
[18] = second compound 3.16 µM, first compound 0.1 µM
[19] = second compound 3.16 µM, first compound 0.316 µM
[20] = second compound 3.16 µM, first compound 1 µM
[21] = second compound 10 µM, first compound 0.0316 µM
[22] = second compound 10 µM, first compound 0.1 µM
[23] = second compound 10 µM, first compound 0.316 µM
[24] = second compound 10 µM, first compound 1 µM
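Note: spheroids exposed to compounds for seven days before readout.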

CC(Nc1ccc2c(c1)OCCn1cc(N3C(=O)OCC3C(F)F)nc1-2)C(N)=O (centres undefined) + C#Cc1c(F)ccc2cc(O)cc(-c3ncc4c(N5CC6CCC(C5)N6)nc(OCC56CCCN5CC(F)C6)nc4c3F)c12
< 31.6 nM: IC50 (second compound 0.0316 µM) | IC50 (second compound 0.1 µM) | IC50 (second compound 0.316 µM) | IC50 (second compound 1 µM) | IC50 (second compound 3.16 µM) | IC50 (second compound 10 µM)
inactive: viability, T/C [1] 15.8% | viability, T/C [2] 14.3%
active: viability, T/C [3] 7.76% | viability, T/C [4] 6.8% | viability, T/C (second compound 0.0316 µM, first compound 3.16 µM) 5.84% | viability, T/C (second compound 0.0316 µM, first compound 10 µM) 4.21% | viability, T/C [5] 6.67% | viability, T/C [6] 6.43% | viability, T/C [7] 3.06% | viability, T/C [8] 2.11% | viability, T/C (second compound 0.1 µM, first compound 3.16 µM) 1.21% | viability, T/C (second compound 0.1 µM, first compound 10 µM) 0.7% | viability, T/C [9] 3.3% | viability, T/C [10] 2.54% | viability, T/C [11] 1.59% | viability, T/C [12] 0.81% | viability, T/C (second compound 0.316 µM, first compound 3.16 µM) 0.63% | viability, T/C (second compound 0.316 µM, first compound 10 µM) 0.43% | viability, T/C [13] 2.75% | viability, T/C [14] 1.42% | viability, T/C [15] 0.85% | viability, T/C [16] 0.69% | viability, T/C (second compound 1 µM, first compound 3.16 µM) 0.44% | viability, T/C (second compound 1 µM, first compound 10 µM) 0.27% | viability, T/C [17] 1.42% | viability, T/C [18] 0.91% | viability, T/C [19] 0.56% | viability, T/C [20] 0.32% | viability, T/C (second compound 3.16 µM, first compound 3.16 µM) 0.39% | viability, T/C (second compound 3.16 µM, first compound 10 µM) 0.32% | viability, T/C [21] 0.95% | viability, T/C [22] 0.23% | viability, T/C [23] 0.14% | viability, T/C [24] 0.17% | viability, T/C (second compound 10 µM, first compound 3.16 µM) 0.45% | viability, T/C (second compound 10 µM, first compound 10 µM) 0.11%

O=C(c1ccc(F)c(F)c1Nc1ccc(I)cc1F)N1CC(O)([C@@H]2CCCCN2)C1 + C#Cc1c(F)ccc2cc(O)cc(-c3ncc4c(N5CC6CCC(C5)N6)nc(OCC56CCCN5CC(F)C6)nc4c3F)c12
active: viability, T/C [1] 5.6% | viability, T/C [2] 2.35% | viability, T/C [3] 0.7% | viability, T/C [4] 0.29% | viability, T/C (second compound 0.1 µM, first compound 0.00316 µM) 6.37% | viability, T/C (second compound 0.1 µM, first compound 0.01 µM) 4.57% | viability, T/C [5] 2.3% | viability, T/C [6] 1.43% | viability, T/C [7] 0.58% | viability, T/C [8] 0.35% | viability, T/C (second compound 0.316 µM, first compound 0.00316 µM) 4.21% | viability, T/C (second compound 0.316 µM, first compound 0.01 µM) 2.12% | viability, T/C [9] 1.39% | viability, T/C [10] 0.91% | viability, T/C [11] 0.54% | viability, T/C [12] 0.22% | viability, T/C (second compound 1 µM, first compound 0.00316 µM) 1.85% | viability, T/C (second compound 1 µM, first compound 0.01 µM) 1.57% | viability, T/C [13] 1.12% | viability, T/C [14] 1.04% | viability, T/C [15] 0.42% | viability, T/C [16] 0.15% | viability, T/C (second compound 3.16 µM, first compound 0.00316 µM) 1.79% | viability, T/C (second compound 3.16 µM, first compound 0.01 µM) 1.3% | viability, T/C [17] 1.31% | viability, T/C [18] 0.67% | viability, T/C [19] 0.2% | viability, T/C [20] 0.21% | viability, T/C (second compound 10 µM, first compound 0.00316 µM) 1.29% | viability, T/C (second compound 10 µM, first compound 0.01 µM) 0.68% | viability, T/C [21] 0.68% | viability, T/C [22] 0.65% | viability, T/C [23] 0.38% | viability, T/C [24] 0.17%
< 3.16 nM: IC50 (second compound 0.0316 µM) | IC50 (second compound 0.1 µM) | IC50 (second compound 0.316 µM) | IC50 (second compound 1 µM) | IC50 (second compound 3.16 µM) | IC50 (second compound 10 µM)
inactive: viability, T/C (second compound 0.0316 µM, first compound 0.00316 µM) 19.3% | viability, T/C (second compound 0.0316 µM, first compound 0.01 µM) 12%
